In US9228202B2, “Intracellular viral vector delivery method employing iron ion/viral vector composite” (POSTECH ACADEMY-INDUSTRY FOUNDATION, priority 2009, dated 2016):

Assays:
[1] = test system: rBMSC; test: Comparison of intracellular delivery of adenoviral vector among ferrous, ferric and calcium ions; type: cell-based, rat; details: rAd/EGFP 30 MOI with 50 μM cation
Method: To examine whether ferric irons (Fe^3+) improve the delivery of […] into cells, the adenoviral vector rAd/EGFP, which carries a GFP (green fluorescent protein) gene, was employed. First, 30 or 100 MOI of rAd/EGFP was mixed and incubated with 2 μM, 10 μM or 50 μM ferric ions for 30 min at room temperature, followed by infection for 2 hours into rat bone marrow mesenchymal stem cells (rBMSC), the human cervical cancer cell line HeLa, and the human amelanotic melanoma cell line (A375), all free from the expression of CAR, a primary receptor for adenoviruses. Then, the viral mixture was removed and the medium was changed with DMEM before incubation for two days in a CO2 incubator (CO2 water Jacketed Incubator, Form a Scientific™). The cells were detached by trypsinization and analyzed for intracellular GFP level using FACS (fluorescence activated cell sorter, BD).
Ferrous and ferric ions were compared with calcium ions, known to improve the gene delivery of adenoviral vectors, for efficacy of gene delivery. In this regard, rBMSC was treated with rAd/EGFP (30 MOI) and 50 μM cations (Fe^2+, Fe^3+, Ca^2+) in the same manner as in Example 1, and the efficacy of gene delivery was compared among the cations.

[2] = test system: rBMSC; test: Cytotoxicity assay of ferric ions (CCK8 cell viability); type: cell-based, rat
Method: A cytotoxicity assay was done with rBMSC in order to evaluate the safety of ferric ions alone or the ferric ion/adenoviral vector composite to the body. rBMSC was incubated for 2 hours with 0.2 μM˜50 mM ferric ions alone or in combination with 100 MOI of an adenoviral vector. On the next day, cell viability was determined using a CCK8 kit (DOJINDO, Japan).

| SMILES | gene delivery efficiency relative to calcium ions [1] | 50% cell viability concentration relative to the iron ion concentration used for gene delivery (10~50 μM) [2] | iron ion concentration at which cytotoxicity starts ([2]; 2 h incubation, CCK8 next day) | cell viability ([2]; iron ion concentration of 50 mM, CCK8) |
| --- | --- | --- | --- | --- |
| [Fe+3] [ferric ions] | 60 times | 1000 fold | 10 mM | decreased to zero |
| [Fe+2] [ferrous ions] | 60 times |  |  |  |
